According to patent US8614217B2 (priority 2008, dated 2013):

Test: log P(HCOOH) (HPLC/MS)
Type: physicochemical
Settings: HCOOH (formic acid); read-out: log P(HCOOH)

SMILES | chromatographic logP
O=C1c2ccccc2C(=O)N1OCc1cccc(N2C(=O)c3ccccc3C2=O)n1 [2-(6-{[(1,3-dioxo-1,3-dihydro-2H-isoindol-2-yl)oxy]methyl}pyridin-2-yl)-1H-isoindole-1,3(2H)-dione] | 2.44
Cn1nnnc1C(=NOCc1cccc(N2C(=O)c3ccccc3C2=O)n1)c1ccccc1 [2-{6-[({[(1-methyl-1H-tetrazol-5-yl)(phenyl)methylene]amino}oxy)methyl]pyridin-2-yl}-1H-isoindole-1,3(2H)-dione] | 3.04
NOCc1cccc(N)n1 [6-[(aminooxy)methyl]pyridin-2-amine] | < -0.23
Cn1nnnc1C(=NOCc1cccc(N)n1)c1ccccc1 [6-[({[(1-methyl-1H-tetrazol-5-yl)(phenyl)methylene]amino}oxy)methyl]pyridin-2-amine] | 1.14
Cn1nnnc1/C(=N\OCc1cccc(NC(=O)OCCCCCl)n1)c1ccccc1 [Example 67, 4-chlorobutyl {6-[({[(Z)-(1-methyl-1H-tetrazol-5-yl)(phenyl)methylene]amino}oxy)methyl]pyridin-2-yl}carbamate] | 3.67

Same assay, conditions: HCOOH; read-out: log P(HCOOH)

SMILES | chromatographic logP
Cn1nnnc1C(=NOCc1cccc(N)n1)c1ccccc1 [6-[({[(1-methyl-1H-tetrazol-5-yl)(phenyl)methylene]amino}oxy)methyl]pyridin-2-amine] | 1.13

Same assay, conditions: HPLC on reversed phase columns, EEC directive 79/831 Annex V.A8; pH 2.7, 0.1% formic acid in water / acetonitrile gradient

SMILES | log p
Cc1nnnn1C(=NOCc1csc(NC(=O)C2CCOCC2)n1)c1ccccc1 (mixture of isomers) [Example 73] | 2.49
Cc1nnnn1C(=NOCc1csc(NC(=O)COC2CC(C)CCC2C(C)C)n1)c1ccccc1 (mixture of isomers) [Example 86] | 5.48
Cn1nnnc1C(=NOCc1cccc(NC(=O)CCOc2ccccc2)n1)c1cccc(F)c1 [Example 10] | 3.64
C#CCCOC(=O)Nc1cccc(CON=C(c2cccc(F)c2)c2nnnn2C)n1 [Example 13] | 3.21
C#CCCOC(=O)Nc1cccc(CON=C(c2ccccc2)n2nnnc2C)n1 [Example 17] | 3.15
Cc1nnnn1C(=NOCc1cccc(NC(=O)OCCCCCl)n1)c1ccccc1 [Example 20] | 3.73
Cc1nnnn1C(=NOCc1cccc(NC(=O)OC2CCCCCC2)n1)c1ccccc1 [Example 21] | 4.71
C#CCCOC(=O)Nc1cccc(CON=C(c2cccc(F)c2)n2nnnc2C)n1 [Example 23] | 3.21
C#CCCCC(=O)Nc1cccc(CON=C(c2cccc(F)c2)n2nnnc2C)n1 [Example 35] | 3.15
Cc1nnnn1C(=NOCc1cccc(NC(=O)CC2CCCCC2)n1)c1ccccc1 [Example 40] | 4.12
Cc1nnnn1C(=NOCc1cccc(NC(=O)CC2CCCCC2)n1)c1cccc(F)c1 [Example 41] | 4.23
Cc1nnnn1C(=NOCc1cccc(NC(=O)CCC2CCCC2)n1)c1ccccc1 [Example 44] | 4.25
Cc1nnnn1C(=NOCc1cccc(NC(=O)CCC2CCCC2)n1)c1cccc(F)c1 [Example 45] | 4.33
Cc1nnnn1C(=NOCc1cccc(NC(=O)C(F)(F)Sc2ccccc2)n1)c1ccccc1 [Example 48] | 4.2
C#CCCCC(=O)Nc1cccc(CON=C(c2ccccc2)c2nnnn2C)n1 [Example 55] | 2.98
C=CCOC(=O)Nc1cccc(CON=C(c2ccccc2)c2nnnn2C)n1 [Example 56] | 3.21
C=CCCOC(=O)Nc1cccc(CON=C(c2ccccc2)c2nnnn2C)n1 [Example 57] | 3.51

Same assay, conditions: HPLC on reversed phase columns, EEC directive 79/831 Annex V.A8; pH 2.7, 0.1% formic acid in water / acetonitrile gradient; read-out: log p

SMILES | chromatographic logP
C#CCCCC(=O)Nc1cccc(CON=C(c2ccccc2)n2nnnc2C)n1 [Example 34] | 3.04
Cn1nnnc1/C(=N\OCc1cccc(NC(=O)OCCCCCl)n1)c1ccccc1 [Example 67, 4-chlorobutyl {6-[({[(Z)-(1-methyl-1H-tetrazol-5-yl)(phenyl)methylene]amino}oxy)methyl]pyridin-2-yl}carbamate] | 3.67

Same assay, conditions: HPLC on reversed phase columns, EEC directive 79/831 Annex V.A8; pH 2.7 with 0.1% formic acid in water and acetonitrile

SMILES | log p
CC(Oc1ccc(F)cc1)C(=O)Nc1cccc(CON=C(c2ccccc2)c2nnnn2C)n1 (mixture of isomers) [Example 262] | 3.79
C=CCCOC(=O)Nc1cccc(CON=C(c2ccccc2C)c2nnnn2C)n1 (mixture of isomers) [Example 315] | 3.65
C#CCCOC(=O)Nc1cccc(CON=C(c2ccccc2Cl)c2nnnn2C)n1 (mixture of isomers) [Example 372] | 3.21
Cn1nnnc1C(=NOCc1cccc(NC(=O)CCOc2ccccc2)n1)c1ccccc1Cl (mixture of isomers) [Example 373] | 3.63
